The values below come from patent publication US20220110993A1, “COMPOSITIONS FOR TREATMENT OF JAW PAIN, TEMPOROMANDIBULAR JOINT AND MUSCLE DISORDER AND BRUXISM” (LAB-O Corp., priority 2020, published 2022).

The conditions of data set [1]: cited from earlier work.
For another data set, the system named is normal skin. The experiment in a line: Human Repeat Insult Patch Test (RIPT). It counts as in vivo. To be noted: RIPT positive control. How it is done: The objective of the study was to determine irritation and sensitization potential of the composition as a test material after repeated application to skin. Contact sensitization was measured by treatment emergent adverse events (TEAE5), reaction grade and investigator assessment of irritation and sensitization. An informed consent was obtained from each volunteer prior to initiating the study. The consent form described reasons for the study, possible adverse effects, associated risks and potential benefits of the treatment and their limits of liability. […] The present composition was tested under occlusive conditions and placed on an 8-millimeter aluminum Finn Chamber (Epitest Ltd. Oy, Tuusula, Finland) supported on Scanpor Tape (Norgesplaster A/S, Kristiansand, Norway). Alternatively, an 8-mm filter paper coated aluminum Finn Chamber AQUA can be supported on a thin flexible transparent polyurethane rectangular film coated on one side with a medical grade acrylic adhesive, consistent with adhesive used in state-of-the-art hypoallergenic surgical tapes or a 7 mm IQ-ULTRA closed cell system. Such a closed cell system is made of additive-free polyethylene plastic foam with a filter paper incorporated (supplied in units of 10 chambers on a hypoallergenic non-woven adhesive tape having a width of 52 mm and a length of 118 mm) or other equivalents. […] Test materials to be tested in an open patch were applied and rubbed directly onto the back of the subject. Approximately 0.02-0.05 mL (in case of liquids) and/or 0.02-0.05 gm (in case of solids) of the test material was used for the study. Liquid test material was dispensed on a 7.5 mm paper disk, which fit in the Finn Chamber. The following procedure was applied: • 1. Subjects were requested to bathe or wash as usual before arrival at the facility. • 2. […] Patches remained in place for 48 hours after the first application. • 4. Subjects were instructed not to remove the patches prior to their 48 hour scheduled visit. • 5. Thereafter, subjects were instructed to remove patches 24 hours after application for the remainder of the study. • 6. […] Prior to each reapplication, the test sites evaluated by trained laboratory personnel. • 8. Following a 10-14 day rest period a retest/challenge dose was applied once to a previously unexposed test site. Test sites were evaluated by trained laboratory personnel 48 and 96 hours after application. In the event of an adverse reaction, the area of erythema and edema were to be measured. Edema is estimated by the evaluation of the skin with respect to the contour of the unaffected normal skin. Subjects were instructed to report any delayed reactions that might occur after the final reading. […] Site discontinued • Dc: Subject discontinued voluntarily • DcI: Subject discontinued per Investigator

In the case of `CC(C)C1CC[C@@H](C)C[C@H]1O` (single isomer, unassigned; (-)) [Menthol crystals, (−)-menthol], in data set [1], the “solubility in oil and alcohol” value was “soluble in both oil and alcohol”.
In the case of `CCCCCCCCCCCCOS(=O)(=O)[O-].[Na+]` [2.0% Sodium Lauryl Sulfate Solution, Sodium Lauryl Sulfate], the “subjects with a Grade 1 reaction” value with normal skin (Grade 1: erythema) was 12 subjects. For the same molecule, the “subjects with a Grade 2 reaction” value in the data set on normal skin (Grade 2: erythema and induration) is reported as 4 subjects. Moreover, in the data set with normal skin (Grade 3: erythema, induration and vesicles), the “subjects with a Grade 3 reaction” value is 1 subjects. Moreover, the “subjects with a Grade 4 reaction” value in the data set with normal skin (Grade 4: erythema, induration and bullae) is 3 subjects. Also, the “subjects with a delayed Grade 2 reaction” value in the data set with normal skin (delayed reaction) is given as 1 subjects.
